Test results published in patent publication US11369572B2, “Fas (Apo-1,CD95) targeted platforms for intracellular drug delivery” (Queen Mary & Westfield College, priority 2009, dated 2022).

System: IGROV1-luciferase cells
Assay: Peritoneal ovarian cancer xenograft, bioluminescence imaging
Conditions: by day 48; n=5
Procedure: 5×10^6 IGROV1-luciferase cells were inoculated IP into female Balb C nu/nu mice on day 1. Paclitaxel (20 mg/kg) and PLGA microspheres were administered IP once per week (days 7, 14, 21 and 28). For bioluminescence imaging, mice were injected IP with 125 mg/kg D-luciferin (Calliper Life Sciences, UK) and then anesthetized (2% isofluorane by inhalation). Five minutes later, whilst still under anaesthetic, they were placed in a light-tight chamber on a warmed stage (37° C.) and light emission from a defined region of interest on a ventral surface was imaged on a Xenogen IVIS Imaging System 100 system (Alameda, Calif., USA). Data were analyzed using Living Image software (also Xenogen, Alameda, Calif., USA) and are presented as relative radiance (calculated from mean Radiance photons/s/cm2/sr).”
Standard error of mean (SEM) was used to assess consistency between each experimental group. One way ANOVA with Bonferroni post test were used to evaluate differences between groups. Two tailed t test was used to compare two groups.

CC(=O)O[C@H]1C(=O)[C@@]2(C)[C@H]([C@H](OC(=O)c3ccccc3)[C@]3(O)C[C@H](OC(=O)[C@H](O)[C@@H](NC(=O)c4ccccc4)c4ccccc4)C(C)=C1C3(C)C)[C@]1(OC(C)=O)CO[C@@H]1C[C@@H]2O [paclitaxel]
further animals sacrificed: 2
